Tested on: defibrinated rabbit red blood cells
Test: Hemolysis assay
Assay type: cell-based
Conditions: defibrinated rabbit RBCs, triplicate on three separate days

CC(C)(C)CC(C)(C)c1ccc(OCCO)cc1 [Triton X]
hemolysis in THY media alone: significant degree of hemolysis
